Test [1] relates to rat cortical cells. The test is described as follows: Neurotoxicity (LDH release) in cortical cell culture. Format: cell-based. The following applies: for NMDA-induced LDH release: 1 mM NOS inhibitor. The procedure:
(§1) Tissue culture: Mixed neuronal and glial cultures were prepared from embryonic day-18 rat cerebral cortices (Sprague-Dawley, Zivic Miller). Briefly, the cerebral cortices were dissected and enzymatically dissociated by incubation in Ca^++-, Mg^++-free Hank's balanced salt solution (HBSS) supplemented with 10 mM HEPES and 0.25% trypsin for 20 min. at 37° C. The tissue was rinsed and dispersed into single cell suspension by gentle passage through a fire polished Pasteur pipette. The cell suspension was centrifuged and resuspended in Minimum Essential Media (MEM), containing Earle's salts supplemented with 3 g/L glucose, 5% horse serum and 5% fetal bovine serum (growth media). The cells were plated in poly-D-lysine-coated multi-well plates: 12-well plates for aconitase measurement, and 24 well plates for toxicity experiments. Cells were maintained at 37° C. in a humidified incubator with 5% CO2/95% air in growth media. Media was not replaced so as to reduce glial overgrowth and neuronal loss. Mature cells (14-17 days in vitro) were used for all experiments.
(§2) Cell treatment: The growth media was replaced with MEM supplemented with 25 mM glucose (MEM-g). For both neurotoxicity studies and aconitase measurement, cells were incubated in the designated treatment for the indicated length of time at 37° C. Unless otherwise specified, antagonists or SOD-mimetics were added 15 min. prior to agonists. For measurement of neurotoxicity, cells were incubated with treatments for 18 hr at 37° C. in MEM-g. To access the ability of antagonists to inhibit acute NMDA toxicity or rescue cells from an ongoing NMDA insult, an alternate paradigm of NMDA treatment was used in addition to the one describe above. In this paradigm, growth media was replaced with HBSS^+ (Ca^++-, Mg^++-free Hank's Balanced Salt Solution supplemented with 2 mM CaCl2, 1 mM NaHCO3, 10 mM HEPES and 5 μM glycine), cells were treated with vehicle or 100 μM NMDA for 15 min. after which HBSS^+ was replaced with MEM-g and cells were returned to the incubator for 18 additional hrs. Antagonsists or SOD-mimetics were added to the cells 15 min. before NMDA exposure or 15, 30 or 60 min. following final media replacement. For determination of Ca^++-dependence, cells were incubated in HBSS^+ with no added Ca^++. When kainate (KA) was used as an agonist, 100 μM D-APV was routinely included to block secondary NMDA receptor activation. Catalase (100 U/ml) was always included when xanthine plus xanthine oxidase (X+XO) was used as a treatment to rule out the contribution of hydrogen peroxide.
Neurotoxicity studies: Neurotoxicity was determined by the measurement of LDH released in the supernatant media as previously described (Patel et al, Toxicol. Appl. Pharmacol. 115:124 (1991) and Neurotoxicology 14:35 (1992)). LDH was measured by the method of Vassault, Lactate dehydrogenase. In: Methods of Enzymatic Analysis, Bergmeyer HU (ed), Verlag Chemie, Weinheim, pp. 118-126 (1983). Additionally, cell death was confirmed with ethidium-1 homodimer (EthD-1). Briefly, the cells were washed with HBSS, loaded with 20 μM EthD-1 for 30 min,. rinsed and viewed through fluorescence optics. The number of dead cells labeled with EthD-1 were counted in 4-6 randomly selected fields, the numbers averaged to give an estimate of cell death and the experiment was repeated 3 times.

Test [2] can be described thus: Cold-induced brain edema. Format: in vivo, mice. Particulars: for Edema Index: mean ± standard error; for less edema formation compared to saline treated controls: pretreatment i.p. The procedure:
Injury model: Young (6-7 week) mice (see Example I) were anesthetized with 60 mg/kg pentobarbital (Nembutal, Abbott Laboratories, Chicago, Ill.). An incision was then made in the scalp and a steel rod 20 cm long, 3 mm in diameter, equilibrated in liquid nitrogen with an 8 cm bath of liquid nitrogen 4 cm from the end of the rod, was placed on the skull over the right cerebral hemisphere for 30 seconds. The skin incision was then sutured.
Two hours after the injury the mouse was given an additional dose of pentobarbital. The chest cavity was opened, the lungs were excised, and the mouse was then perfused with 20 ml saline through the left ventricle of the heart. The brain was then removed and the cerebellum was excised. The right (R) and left (L) cerebral hemispheres were separated and immediately weighed (wet weight, W). Each hemisphere was then dried at 70° C. for 2-3 days in a hot air oven until a constant weight was achieved (dry weight, D). An index of edema (I) was then calculated as shown in equation 13.
I=(W/D R−W/DL)/(W/DL)×100 [13]
Chemical treatments: Six groups of experiments were conducted to investigate the importance of extracellular superoxide, iron, and nitric oxide in cold-induced brain edema. In all groups, drugs were dissolved in saline and injected at 0.008 cc/g 15 minutes prior to cold injury. In Group 1, edema formation of EC-SOD transgenic mice was compared with that of nontransgenic littermates. Group 2 compared edema formation between wild-type (C57BL/6×C3H)F1 mice treated with saline and (C57BL/6×C3H)F1 mice treated with 0.33 mg/g deferoxamine (0.51 μmoles/g). Group 3 compared (C57BL/6×C3H)F1 mice treated with saline to (C57BL/6×C3H)F1 mice treated with 0.51 μmoles/g Fe^3÷− saturated deferoxamine. Group 4 consisted of (C57BL/6×C3H)F1 mice treated with saline and (C57BL/6×C3H)F1 mice treated with 0.02 mg/g N-ω-nitro-L-arginine methyl ester. Group 5 consisted of (C57BL/6×C3H)F1 mice treated with saline and (C75BL/6×C3H)F1 mice treated with 0.02 mg/g N-ω-nitro-L-arginine methyl ester plus 0.05 mg/g L-arginine. Group 6 compared edema formation between nontransgenic mice, EC-SOD transgenic mice treated with saline, and EC-SOD transgenic mice treated with 0.02 mg/g N-ω-nitro-L-arginine methyl ester.
Iron saturated deferoxamine was made by dissolving equimolar amounts of deferoxamine and then ferric chloride in saline. Saturation of deferoxamine with ferric iron was determined spectrophotometrically be measuring the absorbance at 425 nm (ε=2500 M^−1 cm^−1 for Fe3+-deferoxamine) (Monzyk and Crumbliss, J. Amer. Chem. Soc. 104:4921 (1982)).

Test [3] relates to aconitase. Description: Aconitase activity in cortical cell lysates. The following applies: for decrease in aconitase activity: PQ^++ 3 hrs, NMDA 1 hr, KA 6 hrs; for NMDA-induced aconitase inactivation: 1 mM NOS inhibitor. Format: cell-based, rat. The procedure:
as §1, §2
Aconitase measurement: For the measurement of aconitase, following treatment with agents, media was removed and cells lysed in ice-cold 50 mM, Tris/HCl, pH 7.4 containing 0.6 mM MnCl2, 1 mM L-cysteine, 1 mM citrate and 0.5% Triton-X 100. The aconitase activity of cell lysates was measured spectrophotometrically by monitoring the formation of cis-aconitate from isocitrate at 240 nm in 50 mM Tris/HCl, pH 7.4, containing 0.6 mM MnCl2 and 20 mM isocitrate at 25° C. (Kreb and Holzach, Biochem. J. 52:527 (1952); Gardner and Fridovich, J. Biol. Chem. 267:8757 (1992)). […] Aconitase activity in cortical cell lysates was inhibited by 0.1 mM potassium ferricyanide or by boiling of sample.

Test [4] is described as follows: CNS oxygen toxicity, 6 ATA hyperbaric oxygen exposure. Format: in vivo, mice. Particulars: for Survival: 6 ATA oxygen 25 minutes, DDC 400 mg/kg i.p. or LNNA 20 mg/kg i.p. The procedure:
Oxygen exposures: 7-8 week old mice were exposed to hyperbaric oxygen five at a time in a small-animal chamber (Bethlehem, Pa.). After flushing the chamber with pure oxygen, compression to 50 meters (6 ATA) was performed within 5 minutes. The oxygen concentration in the chamber was monitored continuously with a Servomex oxygen analyzer (model 572, Sybron, Norwood, Mass.) and maintained at ≳99%. The carbon dioxide concentration was analyzed from intermittent samples of chamber gas with an IR detector (IR Industries, Santa Barbara, Calif.) and was not allowed to rise above 0.1%. The chamber temperature was maintained at 25-26° C., but the compression of oxygen in the chamber raised the temperature to 30-32° C. transiently, but an environmental control system restored the normal chamber temperature within 3 minutes. […] The mice were observed continuously for signs of oxygen toxicity from the beginning of the exposure until 4 hours after removal from the chamber. The time to the first generalized convulsion (seizure latency) and the time to death were recorded. These exposure conditions are designed to cause CNS oxygen toxicity without appreciable evidence of pulmonary oxygen toxicity.
Treatment with diethyldithiocarbamate: One hour prior to exposure to 6 ATA oxygen, mice were given either i.p. injections of either 0.008 cc/g saline or 400 mg/kg diethyldithiocarbamate dissolves in normal saline (0.008 cc/g). The mice were then exposed to 6 ATA oxygen for 25 minutes as described above.
Treatment with β-mercaptoethanol: One hour prior to exposure to 6 ATA oxygen, mice were given either i.p. injections of 0.008 cc/g saline or 180 mg/kg β-mercaptoethanol (0.008 cc/g). This dose of β-mercaptoethanol was selected because it contains an equal number of reducing thiols as the dose of diethyldithiocarbamate. The mice were then exposed to 6 ATA oxygen for 30 minutes as described above.
Treatment with N-ω-nitro-L-arginine, an inhibitor of nitric oxide synthase: Ten minutes prior to beginning compression, 0.008 cc/g saline or 20 mg/kg (0.008 cc/g) N-ω-nitro-L-arginine dissolved in sterile water was given i.p to the transgenic and nontransgenic mice. Mice were then exposed at 6 ATA oxygen for 25 or 75 minutes as described above.

Each structure is given as a SMILES string.

As to `N[C@H](CCCP(=O)(O)O)C(=O)O` [D-APV, reference compound], the “LDH release” value in test [1] (condition "pre", 100 μM D-APV, 100 μM NMDA 15 min.) is “complete blockade”.

Turning to `CC(=O)N(O)CCCCCNC(=O)CCC(=O)N(O)CCCCCNC(=O)CCC(=O)N(O)CCCCCN` [Deferoxamine, deferoxamine], the “Edema Index” value in test [2] (wild-type mice, 0.51 μmoles/g, 15 minutes prior to cold injury) was found to be 3.41 ± 0.49. For the same molecule, the “less edema formation compared to saline treated controls” value in test [2] (wild-type mice) was 43%.

With `C=C(C)[C@H]1CN[C@H](C(=O)O)[C@H]1CC(=O)O` [KA, kainate], in test [3], the “decrease in aconitase activity” value turned out to be 42%.

With `N=C(N)NCCC[C@H](N)C(=O)O` [L-arginine], the “effect of excess L-arginine on protection by N-ω-nitro-L-arginine” value in test [4] (20 mg/kg LNNA plus 50 mg/kg L-arginine, 6 ATA oxygen) was “could be reversed”.

In the case of `COC(=O)[C@@H](N)CCCNC(=N)N[N+](=O)[O-]` [LNAME, N-ω-nitro-L-arginine methyl ester], the “NMDA-induced LDH release” value in test [1] is reported as “unchanged”. Moreover, in test [3], the NMDA-induced aconitase inactivation entry is on record as “unchanged”. Moreover, the “Edema Index” value was determined as 4.30 ± 0.96 in test [2] (EC-SOD transgenic mice, 20 mg/kg 15 minutes prior to cold-induced injury) and 3.65 ± 0.51 in test [2] (wild-type mice, 0.02 mg/g LNAME, with or without 0.05 mg/g L-arginine). Besides, the “less edema formation compared to saline treated controls” value in test [2] (wild-type mice) is listed as 37%.

As to `C[C@]12N[C@H](Cc3ccccc31)c1ccccc12` [MK801, reference compound], the “reduction of LDH release / protective effect” value in test [1] (added 15 min. after 15 min. 100 μM NMDA, 200 μM MnTBAP, 10 μM MK801) is on record as 17%.

For the molecule `NC(=NCCC[C@H](N)C(=O)O)N[N+](=O)[O-]` [N-ω-nitro-L-arginine], the “difference in sensitivity between transgenic and nontransgenic mice” value in test [4] (20 mg/kg i.p., 6 ATA oxygen 75 minutes) is on record as “abolished the difference in sensitivity”. Also, the Survival in test [4] (nontransgenic mice) and in test [4] (transgenic mice) was 100% in each case. In addition, the “seizure latency” value in test [4] (transgenic and nontransgenic mice, 20 mg/kg i.p., 6 ATA oxygen) is “significantly delayed”; in test [4] (wild-type mice, 20 mg/kg i.p., 6 ATA oxygen), 13.50 ± 5.6 min. Also, the mortality turned out to be 50% in test [4] (wild-type mice, 20 mg/kg i.p., 90 minutes of 6 ATA oxygen) and 100% in test [4] (wild-type mice, 20 mg/kg i.p., 2 hours of 6 ATA oxygen). Also, the “NMDA-induced LDH release” value in test [1] was “unchanged”. In addition, the NMDA-induced aconitase inactivation result in test [3] is “unchanged”.

Take `CN[C@H](CC(=O)O)C(=O)O` [NMDA, N-methyl-D-aspartate]: the “decrease in aconitase activity” value in test [3] is reported as 40%.

Take `C[n+]1ccc(-c2cc[n+](C)cc2)cc1` [PQ^++, methylviologen (paraquat)]: the “decrease in aconitase activity” value in test [3] was determined as 70%.

Regarding `OCCS` [β-mercaptoethanol], the “protection against CNS oxygen toxicity” value in test [4] (180 mg/kg i.p., 6 ATA oxygen 30 minutes) was “did not protect against CNS oxygen toxicity”.

As a reminder, the mortality is the percentage killed.

(Values after patent US6583132B1, “Oxidant scavengers” (Duke University, priority 1993, dated 2003).)
